In patent US11384099B2, “Pyrazolopyridinone compounds” (Janssen Pharmaceutica NV, priority 2017, dated 2022):

Tests used:
[1] = test system: NIH/3T3 cells overexpressing FGFR3 V555M-TACC3 fusion protein; assay: NIH/3T3 FGFR3 V555M-TACC3 cellular phospho-ERK assay (in vitro PD assay); type: cell-based; conditions: Mus musculus, NIH3T3; 1-hr incubation, AlphaLISA SureFire Ultra p-ERK1/2; read-out: NIH/3T3 FGFR3 V555M-TACC3 pERK (IC50)
Procedure: NIH/3T3 FGFR3 V555M-TACC3 Cellular Phospho-ERK Assay (In Vitro PD Assay)
(§1) 50 μL of cell suspension (NIH/3T3 cells overexpressing FGFR3 V555M-TACC3 fusion protein) (total 10,000 cells per well in growth medium (DMEM containing 1% Glutamax, 10% FBS and 1% Pen/Strep)) was seeded in a 384-well plate. After overnight incubation at 37° C. and 5% CO2, 5.5 μL of growth medium containing 10× testing compound was added into cell cultures (10 dose points with 4× serial dilution, starting with 10 μM, 0.1% DMSO final). After 1-hr incubation at 37° C. and 5% CO2, the medium was depleted and AlphaLISA SureFire Ultra p-ERK1/2 (Thr202/Tyr204) Assay Kit (from PerkinElmer) was applied for phospho-ERK level detection according to the kit instructions. The RFUs (relative fluorescence units were measured on EnVision microplate reader (ex. 680 nm, em. 615 nm) and concentration-response curve was plotted using Prism to calculate IC50 (M), pIC50 (−log IC50) and HillSlope value.

[2] = test system: NIH/3T3 cells overexpressing FGFR3 WT-TACC3 fusion protein; assay: NIH/3T3 FGFR3 WT-TACC3 cellular phospho-ERK assay (in vitro PD assay); type: cell-based; conditions: Mus musculus, NIH3T3; 1-hr incubation, AlphaLISA SureFire Ultra p-ERK1/2; read-out: NIH/3T3 FGFR3 WT-TACC3 pERK (IC50)
Procedure: NIH/3T3 FGFR3 WT-TACC3 Cellular Phospho-ERK Assay (In Vitro PD Assay)
as §1, with “50 uL” for “50 μL”, “FGFR3 WT-TACC3” for “FGFR3 V555M-TACC3”

[3] = test system: NIH/3T3 cells transfected with control vector (MOCK); assay: NIH/3T3 mock cell proliferation assay (CTG, counter assay); type: cell-based; conditions: Mus musculus, NIH3T3; 72-hr incubation, CellTiter Glo; counter assay for general toxicity
Procedure: NIH/3T3 Mock Cell Proliferation Assay
(§2) In day 1, 90 μL of cell suspension (NIH/3T3 cells transfected with the same control vector as in the above two proliferation assays) (total 30,000 cells per well in growth medium (DMEM containing 1% Glutamax, 10% FBS and 1% Pen/Strep)) was seeded in a 96-well plate and then incubated overnight at 37° C. and 5% CO2. In day 2, 10 μL of growth medium containing 10-fold stock solution of testing compound was added into cell cultures (9 dose points with 3× serial dilution, starting with 30 μM, 0.3% DMSO final). After 72-hr incubation at 37° C. and 5% CO2, in day 5 a volume of 50 μL CellTiter Glo (CTG) reagent was added into cell-containing 96-well plate and the plate was incubated at room temperature for 10 minutes before RLUs (relative light unit) were measured on a microplate reader with luminescence detection module. The RLU value was normalized to survival % and concentration-response curve was plotted using Prism to calculate IC50 (M), pIC50 (−log IC50) and HillSlope value.

[4] = target: T1, NIH/3T3 cells overexpressing FGFR3 WT-TACC3 fusion protein (Homo sapiens, UniProt P22607); assay: NIH/3T3 FGFR3 WT-TACC3 cell proliferation assay (CTG); type: cell-based; conditions: 72-hr incubation, CellTiter Glo; read-out: NIH/3T3 FGFR3 WT-TACC3 CTG (IC50)
T1 construct: NIH/3T3 FGFR3 WT-TACC3 CTG (IC50); other: 72-hr incubation, CellTiter Glo; fused on or other part: C-terminal coiled-coil part of TACC3 (part of the key, as a fusion known from patients); Q9Y6A5 (Transforming acidic coiled-coil-containing protein 3)
T1 sequence (P22607 whole entry, change not shown, the tested form may be a part): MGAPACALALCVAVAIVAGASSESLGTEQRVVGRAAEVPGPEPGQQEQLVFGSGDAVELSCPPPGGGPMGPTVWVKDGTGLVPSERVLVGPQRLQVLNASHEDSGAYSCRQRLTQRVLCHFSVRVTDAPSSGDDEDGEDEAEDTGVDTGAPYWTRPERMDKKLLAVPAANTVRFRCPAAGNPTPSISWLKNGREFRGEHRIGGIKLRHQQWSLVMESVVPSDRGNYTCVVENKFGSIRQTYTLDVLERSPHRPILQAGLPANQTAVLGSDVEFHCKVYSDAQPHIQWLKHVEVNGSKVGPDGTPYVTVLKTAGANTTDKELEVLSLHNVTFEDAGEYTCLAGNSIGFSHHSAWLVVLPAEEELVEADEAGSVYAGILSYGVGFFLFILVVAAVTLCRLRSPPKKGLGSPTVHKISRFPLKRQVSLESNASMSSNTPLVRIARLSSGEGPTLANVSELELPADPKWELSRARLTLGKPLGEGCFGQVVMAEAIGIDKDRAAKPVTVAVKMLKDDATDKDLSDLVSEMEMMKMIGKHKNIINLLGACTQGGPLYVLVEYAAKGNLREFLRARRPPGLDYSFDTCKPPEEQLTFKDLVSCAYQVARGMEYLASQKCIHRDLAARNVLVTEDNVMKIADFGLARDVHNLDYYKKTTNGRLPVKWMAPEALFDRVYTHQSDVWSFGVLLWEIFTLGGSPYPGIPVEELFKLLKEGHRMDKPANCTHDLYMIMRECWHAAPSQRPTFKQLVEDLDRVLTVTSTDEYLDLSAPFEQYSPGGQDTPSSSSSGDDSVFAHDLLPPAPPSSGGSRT
Procedure: NIH/3T3 FGFR3 WT-TACC3 Cell Proliferation Assay
as §2, with “cells overexpressing FGFR3 WT-TACC3 fusion protein)” for “cells transfected with the same control vector as in the above two proliferation assays)”, “with 4×” for “with 3×”, “with 10” for “with 30”, “μM, 0.1%” for “μM, 0.3%”

[5] = target: T2, human FGFR3 V555M enzyme (cytoplasmic domain carrying V555M mutation) (Homo sapiens, UniProt P22607, V555M); assay: FGFR3 V555M mobility shift assay (enzymatic assay, Caliper); type: biochemical; conditions: 30 μM ATP, 45 minutes at 30° C.
T2 construct: cytoplasmic domain carrying V555M mutation, from Carna Biosciences; purchased Carna Biosciences
T2 sequence (P22607 397-806 V555M limits assumed): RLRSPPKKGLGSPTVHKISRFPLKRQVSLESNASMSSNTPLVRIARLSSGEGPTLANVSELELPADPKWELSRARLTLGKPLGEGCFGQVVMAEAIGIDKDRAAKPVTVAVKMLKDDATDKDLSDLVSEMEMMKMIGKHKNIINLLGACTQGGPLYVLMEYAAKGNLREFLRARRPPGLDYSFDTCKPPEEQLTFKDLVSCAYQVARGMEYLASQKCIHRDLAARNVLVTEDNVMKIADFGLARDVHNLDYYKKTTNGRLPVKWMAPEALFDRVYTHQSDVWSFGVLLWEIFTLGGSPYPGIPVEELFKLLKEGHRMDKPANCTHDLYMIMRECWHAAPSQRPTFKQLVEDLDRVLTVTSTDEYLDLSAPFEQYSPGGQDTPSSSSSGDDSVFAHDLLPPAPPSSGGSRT
Procedure: FGFR3 V555M Mobility Shift Assay (Enzymatic Assay)
(§3) In a final reaction volume of 25 μL, 0.04 ng/μL human FGFR3 V555M enzyme (cytoplasmic domain carrying V555M mutation, from Carna Biosciences) was incubated with 30 μM ATP, 1 μM FL-peptide 30 substrate and 250 nL of testing compound (1% DMSO final) in assay buffer (100 mM HEPES pH 7.4, 10 mM MgCl2, 0.003% Brij35, 1 mM DTT). After incubation for 45 minutes at 30° C. the reaction was stopped with 10 μL of 0.5M EDTA pH 8.0, and then L of reaction mixture was transferred to reading plate and measured on Caliper EZ reader II.

[6] = target: T3, human FGFR3 wild type enzyme (cytoplasmic domain) (Homo sapiens, UniProt P22607); assay: FGFR3 wild type mobility shift assay (enzymatic assay, Caliper); type: biochemical; conditions: 75 μM ATP, 50 minutes at 30° C.
T3 construct: human FGFR3 wild type enzyme (cytoplasmic domain, from Cama Biosciences); purchased Carna Biosciences
T3 sequence (P22607 397-806 limits assumed): as the sequence (P22607 397-806 V555M limits assumed) above, with M159V counted along it
Procedure: FGFR3 Wild Type Mobility Shift Assay (Enzymatic Assay)
as §3, with “FGFR3 wild type” for “FGFR3 V555M”, “(cytoplasmic domain,” for “(cytoplasmic domain carrying V555M mutation,”, “from Cama” for “from Carna”, “with 75” for “with 30”, “for 50” for “for 45”

SMILES | IC50 [1] [nM] | IC50 [2] [nM] | IC50 [3] [nM] | GI50 [4] [nM] | IC50 [5] [nM] | IC50 [6] [nM]
COc1ccc2nc(-c3c(N[C@@H](C)c4ncccn4)c4nn(C)cc4[nH]c3=O)[nH]c2c1 (single isomer, unassigned) [Compound 1, (S*)-6-(6-Methoxy-1H-benzo[d]imidazol-2-yl)-2-methyl-7-((1-(pyrimidin-2-yl)ethyl)-amino)-2H-pyrazolo[4,3-b]pyridin-5 (4H)-one] | 3.05 | 3.2 | 987 | – | – | –
CCC(Nc1c(-c2nc3cc(OC)c(OC)cc3[nH]2)c(=O)[nH]c2cn(C)nc12)c1ncccn1 (single isomer, unassigned) [Compound 42, (S*)-6-(5,6-dimethoxy-1H-benzo[d]imidazol-2-yl)-2-methyl-7-((1-(pyrimidin-2-yl)-propyl)amino)-2H-pyrazolo[4,3-b]pyridin-5 (4H)-one] | – | – | 591 | 12.5 | 0.407 | 2.16
CCOc1cc2[nH]c(-c3c(N[C@@H](C)c4ncccn4)c4nn(C)cc4[nH]c3=O)nc2cc1OC [Compound 7, (S)-6-(6-ethoxy-5-methoxy-1H-benzo[d]imidazol-2-yl)-2-methyl-7-((1-(pyrimidin-2-yl)ethyl)amino)-2,4-dihydro-5H-pyrazolo[4,3-b]pyridin-5-one] | 2.79 | 3.64 | 713 | – | 0.183 | 0.327
C[C@H](Nc1c(-c2nc3ccc(F)cc3[nH]2)c(=O)[nH]c2cn(C)nc12)c1ncccn1 [Compound 28, (S)-6-(6-Fluoro-1H-benzo[d]imidazol-2-yl)-2-methyl-7-((1-(pyrimidin-2-yl)ethyl)amino)-2H-pyrazolo[4,3-b]pyridin-5 (4H)-one] | – | – | 2030 | 23.3 | 0.595 | 2.15
CCn1cc2[nH]c(=O)c(-c3nc4c(OC)cc(OC)cc4[nH]3)c(N[C@@H](C)c3ncccn3)c2n1 [Compound 31, (S)-6-(4,6-dimethoxy-1H-benzo[d]imidazol-2-yl)-2-ethyl-7-((1-(pyrimidin-2-yl)ethyl)-amino)-2H-pyrazolo[4,3-b]pyridin-5 (4H)-one] | – | – | 1940 | 34.4 | 1.78 | 6.21
CCn1cc2[nH]c(=O)c(-c3nc4cc(OC)c(OCCOC)cc4[nH]3)c(N[C@@H](C)c3ncccn3)c2n1 [Compound 38, (S)-2-ethyl-6-(5-methoxy-6-(2-methoxyethoxy)-1H-benzo[d]imidazol-2-yl)-7-((1-(pyrimidin-2-yl)ethyl)amino)-2H-pyrazolo[4,3-b]pyridin-5 (4H)-one] | – | – | 532 | 18.4 | 0.568 | 0.98
CCOc1ccc2nc(-c3c(N[C@@H](C)c4ncccn4)c4nn(CC)cc4[nH]c3=O)[nH]c2c1 [Compound 50, (S)-6-(6-ethoxy-1H-benzo[d]imidazol-2-yl)-2-ethyl-7-((1-(pyrimidin-2-yl)ethyl)amino)-2,4-dihydro-5H-pyrazolo[4,3-b]pyridin-5-one] | – | – | 1100 | – | 0.576 | 2.96
CCn1cc2[nH]c(=O)c(-c3nc4cc(OC)c(OC)cc4[nH]3)c(N[C@@H](C)c3ccccn3)c2n1 [Compound 51, (S)-6-(5,6-dimethoxy-1H-benzo[d]imidazol-2-yl)-2-ethyl-7-((1-(pyridin-2-yl)ethyl)-amino)-2,4-dihydro-5H-pyrazolo[4,3-b]pyridin-5-one] | – | – | 1130 | 30.2 | 0.613 | 4.43
CCOc1cc2nc(-c3c(N[C@@H](C)c4ncccn4)c4nn(CC)cc4[nH]c3=O)[nH]c2cc1OCC [Compound 52, (S)-6-(5,6-diethoxy-1H-benzo[d]imidazol-2-yl)-2-ethyl-7-((1-(pyrimidin-2-yl)ethyl)-amino)-2H-pyrazolo[4,3-b]pyridin-5 (4H)-one] | 6.67 | 5.66 | 653 | – | 0.281 | 0.853
CCOc1cc2nc(-c3c(N[C@@H](C)c4ncccn4)c4nn(C)cc4[nH]c3=O)[nH]c2cc1OCC [Compound 53, (S)-6-(5,6-diethoxy-1H-benzo[d]imidazol-2-yl)-2-methyl-7-((1-(pyrimidin-2-yl)ethyl)-amino)-2,4-dihydro-5H-pyrazolo[4,3-b]pyridin-5-one] | – | – | 535 | – | 0.298 | 0.554
CCn1cc2[nH]c(=O)c(-c3nc4ccc(OCCOC)cc4[nH]3)c(N[C@@H](C)c3ncccn3)c2n1 [Compound 54, (S)-2-ethyl-6-(6-(2-methoxyethoxy)-1H-benzo[d]imidazol-2-yl)-7-((1-(pyrimidin-2-yl)-ethyl)amino)-2H-pyrazolo[4,3-b]pyridin-5 (4H)-one] | – | – | 689 | – | 0.562 | 1.64
COc1cc2nc(-c3c(N[C@@H](C)c4ccccn4)c4nn(C)cc4[nH]c3=O)[nH]c2cc1OC [Compound 56, (S)-6-(5,6-dimethoxy-1H-benzo[d]imidazol-2-yl)-2-methyl-7-((1-(pyridin-2-yl)ethyl)-amino)-2H-pyrazolo[4,3-b]pyridin-5 (4H)-one] | 5.16 | 7.92 | 857 | – | 0.296 | 1.56
